Experimental data taken from ChEMBL document CHEMBL3351522, “Discovery of structurally simplified analogs of colchicine as an immunosuppressant” (Bioorg Med Chem Lett, 2014).
Calls of active or inactive are those of the source.

Assays:
B-cell [1] = experiment: Immunosuppressive activity in B cells (unknown origin) assessed as inhibition of LPS-induced cell proliferation at 3 to 30 ng/mL; format: functional, cell-based
T-cell [2] = experiment: Immunosuppressive activity in T cells (unknown origin) assessed as inhibition of Con A-induced cell proliferation at 3 to 30 ng/mL; format: functional, cell-based
Mus musculus [3] = experiment: Toxicity in male ICR-SPF mouse assessed as induction of body weight changes at 100 mg/kg, iv administered as single dose measured 14 days post dose; format: organism-based; design: dose 100 mg/kg, route intravenous; settings: in vivo, 336 h
Mus musculus [4] = experiment: Toxicity in female ICR-SPF mouse assessed as induction of body weight changes at 100 mg/kg, iv administered as single dose measured 14 days post dose; format: organism-based; design: dose 100 mg/kg, route intravenous; settings: in vivo, 336 h
Mus musculus [5] = experiment: Toxicity in male ICR-SPF mouse assessed as autopsy changes at 10 mg/kg, iv administered as single dose measured 14 days post dose; format: organism-based; design: dose 10 mg/kg, route intravenous; settings: in vivo, 336 h
Mus musculus [6] = experiment: Toxicity in female ICR-SPF mouse assessed as autopsy changes at 10 mg/kg, iv administered as single dose measured 14 days post dose; format: organism-based; design: dose 10 mg/kg, route intravenous; settings: in vivo, 336 h
Mus musculus [7] = experiment: Toxicity in male ICR-SPF mouse assessed as autopsy changes at 30 mg/kg, iv administered as single dose measured 14 days post dose; format: organism-based; design: dose 30 mg/kg, route intravenous; settings: in vivo, 336 h
Mus musculus [8] = experiment: Toxicity in female ICR-SPF mouse assessed as autopsy changes at 30 mg/kg, iv administered as single dose measured 14 days post dose; format: organism-based; design: dose 30 mg/kg, route intravenous; settings: in vivo, 336 h
Mus musculus [9] = experiment: Toxicity in male ICR-SPF mouse assessed as autopsy changes at 100 mg/kg, iv administered as single dose measured 14 days post dose; format: organism-based; design: dose 100 mg/kg, route intravenous; settings: in vivo, 336 h
Mus musculus [10] = experiment: Toxicity in female ICR-SPF mouse assessed as autopsy changes at 100 mg/kg, iv administered as single dose measured 14 days post dose; format: organism-based; design: dose 100 mg/kg, route intravenous; settings: in vivo, 336 h
Mus musculus [11] = experiment: Toxicity in iv dosed male ICR-SPF mouse administered as single dose measured 14 days post dose; format: organism-based; settings: in vivo, 336 h
Mus musculus [12] = experiment: Toxicity in iv dosed female ICR-SPF mouse administered as single dose measured 14 days post dose; format: organism-based; settings: in vivo, 336 h
B-cell [13] = experiment: Immunosuppressive activity in B cells (unknown origin) assessed as inhibition of LPS-induced cell proliferation at 1 to 100 ng/mL; format: functional, cell-based
T-cell [14] = experiment: Immunosuppressive activity in T cells (unknown origin) assessed as inhibition of Con A-induced cell proliferation at 1 to 100 ng/mL; format: functional, cell-based
RAW264.7 = experiment: Inhibition of nitric oxide production in mouse RAW264.7 cells at 1 to 100 ng/mL; format: functional, cell-based
Macrophage = experiment: Inhibition of nitric oxide production in bone marrow-derived macrophages (unknown origin) at 1 to 100 ng/mL; format: functional, cell-based
Dendritic cell = experiment: Inhibition of LPS-induced IL-12 production in bone marrow-derived dendritic cells (unknown origin) at 1 to 100 ng/mL; format: functional, cell-based
[15] = Toxicity in LPS-induced bone marrow-derived dendritic cells (unknown origin) assessed as effect on cell viability at 1 to 100 ng/mL; format: cell-based
Mus musculus [16] = species: Mus musculus; experiment: Immunosuppressive activity in SRBC immunized mouse assessed as suppression of B-cell mediated immune response; format: functional, organism-based
Mus musculus [17] = experiment: Immunosuppressive activity in zymosan A-induced arthritis C57BL/6 mouse model assessed as reduction in pLN weight increase dosed after zymosan A challenge; format: functional, organism-based
Mus musculus [18] = experiment: Immunosuppressive activity in carrageenan-induced paw edema C57BL/6 mouse model assessed as reduction in pLN weight increase dosed after carrageenan challenge; format: functional, organism-based
Mus musculus [19] = experiment: Toxicity in C57BL/6 mouse assessed as induction of body weight loss at 1 mg/kg, iv dosed once daily for 4 days; format: organism-based; design: dose 1 mg/kg, route intravenous; settings: in vivo, 96 h
Mus musculus [20] = experiment: Toxicity in C57BL/6 mouse assessed as induction of body weight loss at 0.1 to 3 mg/kg, iv dosed once daily for 4 days; format: organism-based; design: dose 0.1-3 mg/kg, route intravenous; settings: in vivo, 96 h
Mus musculus [21] = experiment: Toxicity in C57BL/6 mouse assessed as induction of spleen weight loss at 0.1 to 3 mg/kg, iv dosed once daily for 4 days; format: organism-based; design: dose 0.1-3 mg/kg, route intravenous; settings: in vivo, 96 h
Mus musculus [22] = experiment: Intestinal toxicity in C57BL/6 mouse assessed as induction of intestinal dilation at 1 mg/kg, iv dosed once daily for 4 days; format: organism-based; design: dose 1 mg/kg, route intravenous; settings: in vivo, 96 h
Mus musculus [23] = experiment: Toxicity in male ICR-SPF mouse assessed as mortality incidences at 10 mg/kg, iv administered as single dose measured 14 days post dose; format: organism-based; design: dose 10 mg/kg, route intravenous; settings: in vivo, 336 h
Mus musculus [24] = experiment: Toxicity in female ICR-SPF mouse assessed as mortality incidences at 10 mg/kg, iv administered as single dose measured 14 days post dose; format: organism-based; design: dose 10 mg/kg, route intravenous; settings: in vivo, 336 h
Mus musculus [25] = experiment: Toxicity in male ICR-SPF mouse assessed as mortality incidences at 30 mg/kg, iv administered as single dose measured 14 days post dose; format: organism-based; design: dose 30 mg/kg, route intravenous; settings: in vivo, 336 h
Mus musculus [26] = experiment: Toxicity in female ICR-SPF mouse assessed as mortality incidences at 30 mg/kg, iv administered as single dose measured 14 days post dose; format: organism-based; design: dose 30 mg/kg, route intravenous; settings: in vivo, 336 h
Mus musculus [27] = experiment: Toxicity in male ICR-SPF mouse assessed as mortality incidences at 100 mg/kg, iv administered as single dose measured 14 days post dose; format: organism-based; design: dose 100 mg/kg, route intravenous; settings: in vivo, 336 h
Mus musculus [28] = experiment: Toxicity in female ICR-SPF mouse assessed as mortality incidences at 100 mg/kg, iv administered as single dose measured 14 days post dose; format: organism-based; design: dose 100 mg/kg, route intravenous; settings: in vivo, 336 h
Mus musculus [29] = experiment: Toxicity in male ICR-SPF mouse assessed as induction of body weight changes at 10 mg/kg, iv administered as single dose measured 14 days post dose; format: organism-based; design: dose 10 mg/kg, route intravenous; settings: in vivo, 336 h
Mus musculus [30] = experiment: Toxicity in female ICR-SPF mouse assessed as induction of body weight changes at 10 mg/kg, iv administered as single dose measured 14 days post dose; format: organism-based; design: dose 10 mg/kg, route intravenous; settings: in vivo, 336 h
Mus musculus [31] = experiment: Toxicity in male ICR-SPF mouse assessed as induction of body weight changes at 30 mg/kg, iv administered as single dose measured 14 days post dose; format: organism-based; design: dose 30 mg/kg, route intravenous; settings: in vivo, 336 h
Mus musculus [32] = experiment: Toxicity in female ICR-SPF mouse assessed as induction of body weight changes at 30 mg/kg, iv administered as single dose measured 14 days post dose; format: organism-based; design: dose 30 mg/kg, route intravenous; settings: in vivo, 336 h

COc1ccc(/C=C/c2ccc(OC)c(=O)cc2)c(OC)c1OC
inactive: inhibition (B-cell [1]) | inhibition (T-cell [2])

COc1cc2c(c(OC)c1OC)-c1ccc(SC)c(=O)cc1C=CC2
inactive: inhibition (Macrophage)
active: inhibition (B-cell [13]) Dose-dependent effect | inhibition (T-cell [14]) Dose-dependent effect | inhibition (RAW264.7) | inhibition (Dendritic cell) Dose-dependent effect | Activity (Mus musculus [16]) Dose-dependent effect | inhibition (Mus musculus [17]) Dose-dependent effect | inhibition (Mus musculus [18]) Dose-dependent effect
Non-toxic: Activity (Mus musculus [3]) | Activity (Mus musculus [4]) | Activity (Mus musculus [5]) | Activity (Mus musculus [6]) | Activity (Mus musculus [7]) | Activity (Mus musculus [8]) | Activity (Mus musculus [9]) | Activity (Mus musculus [10]) | Activity [15] | Activity (Mus musculus [19]) | Activity (Mus musculus [20]) | Activity (Mus musculus [21]) | Activity (Mus musculus [22]) | Activity (Mus musculus [23]) | Activity (Mus musculus [24]) | Activity (Mus musculus [25]) | Activity (Mus musculus [26]) | Activity (Mus musculus [27]) | Activity (Mus musculus [28]) | Activity (Mus musculus [29]) | Activity (Mus musculus [30]) | Activity (Mus musculus [31]) | Activity (Mus musculus [32])
> 100 mg/kg: MLD (Mus musculus [11]) | MLD (Mus musculus [12])

COc1cc2c(c(OC)c1OC)-c1ccc(SC)c(=O)cc1[C@@H](NC(=O)C1CC1C)CC2 (stereo partly specified)
Toxic: Activity (Mus musculus [20]) | Activity (Mus musculus [21]) | Activity (Mus musculus [22])

COc1ccc(C/C=C/c2ccc(OC)c(=O)cc2)c(OC)c1OC
inactive: inhibition (B-cell [1]) | inhibition (T-cell [2])

COc1ccc(-c2ccc(OC)c(=O)cc2)c(OC)c1OC
active: inhibition (B-cell [1]) | inhibition (T-cell [2])

COc1cc(/C=C/c2ccc(OC)c(=O)cc2)cc(OC)c1OC
inactive: inhibition (B-cell [1]) | inhibition (T-cell [2])

COc1ccc(-c2ccc(SC)c(=O)cc2)c(OC)c1OC
active: inhibition (B-cell [1]) | inhibition (T-cell [2])

COc1cc(C/C=C/c2ccc(OC)c(=O)cc2)cc(OC)c1OC
inactive: inhibition (B-cell [1]) | inhibition (T-cell [2])

COc1cc2c(c(OC)c1OC)-c1ccc(SC)c(=O)cc1CCC2
active: inhibition (B-cell [13]) Dose-dependent effect | inhibition (T-cell [14]) Dose-dependent effect | inhibition (RAW264.7) | inhibition (Dendritic cell) Dose-dependent effect | Activity (Mus musculus [16]) Dose-dependent effect | inhibition (Mus musculus [17]) Dose-dependent effect | inhibition (Mus musculus [18]) Dose-dependent effect
> 100 mg/kg: MLD (Mus musculus [11]) | MLD (Mus musculus [12])
inactive: inhibition (Macrophage)
Non-toxic: Activity (Mus musculus [3]) | Activity (Mus musculus [4]) | Activity (Mus musculus [5]) | Activity (Mus musculus [6]) | Activity (Mus musculus [7]) | Activity (Mus musculus [8]) | Activity (Mus musculus [9]) | Activity (Mus musculus [10]) | Activity [15] | Activity (Mus musculus [19]) | Activity (Mus musculus [20]) | Activity (Mus musculus [21]) | Activity (Mus musculus [22]) | Activity (Mus musculus [23]) | Activity (Mus musculus [24]) | Activity (Mus musculus [25]) | Activity (Mus musculus [26]) | Activity (Mus musculus [27]) | Activity (Mus musculus [28]) | Activity (Mus musculus [29]) | Activity (Mus musculus [30]) | Activity (Mus musculus [31]) | Activity (Mus musculus [32])
